Experimental data taken from patent US9365576B2, “Pyrrolopyrrolidinone compounds” (Novartis AG, priority 2012, dated 2016).

What follows are molecules tested against human MDM2 protein (amino acids 2-188) (Homo sapiens (Human), UniProt Q00987) (assay: TR-FRET assay, p53-MDM2 Assay 2 (modified)). Details: TR-FRET; 0.1 nM MDM2, 0.1 nM Europium labeled streptavidin, Tecan genios Pro reader; read-out: IC50 p53-MDM2 Assay 2.
Format: binding
Description: The inhibition of p53-MDM2 and p53-MDM4 interactions is measured by time resolved fluorescence energy transfer (TR-FRET). Fluorescence energy transfer (or Foerster resonance energy transfer) describes an energy transfer between donor and acceptor fluorescent molecules. For this assay, human MDM2 protein (amino acids 2-188) and human MDM4 protein (amino acids 2-185), tagged with a C-terminal biotin moiety, are used in combination with a Europium labeled streptavidin (Perkin Elmer, Inc., Waltham, Mass., USA) serving as the donor fluorophore. The p53 derived, Cy5 labeled peptide Cy5-[…] (p53 aa18-26) is the energy acceptor. Upon excitation of the donor molecule at 340 nm, binding interaction between MDM2 or MDM4 and the p53 peptide induces energy transfer and enhanced response at the acceptor emission wavelength at 665 nm. […] The ratiometric FRET assay readout is calculated from the raw data of the two distinct fluorescence signals measured in time resolved mode (fluorescence 665 nm/fluorescence 620 nm×1000).
After addition of 1.25 nM MDM2-biotinylated or 2.5 nM MDM4-biotinylated (internal preparations), and 0.625 nM Europium labeled streptavidin (Perkin Elmer), the solution is pre-incubated for 15 minutes at room temperature, then 10 nM Cy5-p53 peptide (internal preparation) is added before an incubation at room temperature for 15 minutes prior to reading the plate. For measurement of samples, a Victor II microplate reader (Perkin Elmer) is used with the following settings: Excitation 340 nm, Emission Donor 620 nm and Emission Acceptor 665 nm. IC50 values are calculated by curve fitting using XLfit. If not specified, reagents are purchased from Sigma-Aldrich Chemie GmBH, Buchs, Switzerland.

human MDM2 protein (amino acids 2-188), sequence (Q00987 2-188): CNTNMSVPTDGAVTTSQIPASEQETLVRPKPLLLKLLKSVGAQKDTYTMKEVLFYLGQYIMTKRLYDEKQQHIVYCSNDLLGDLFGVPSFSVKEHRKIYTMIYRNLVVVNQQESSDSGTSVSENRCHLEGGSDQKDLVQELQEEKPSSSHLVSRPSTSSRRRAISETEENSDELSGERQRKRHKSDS

Structure (SMILES)	IC50 [nM]
CNC(=O)c1ccc(OC)c(-c2cc3c(n2C(C)C)[C@@H](c2ccc(Cl)cc2C)N(c2cc(Cl)ccc2C)C3=O)c1 [Example 33, 3-[(R)-5-(5-Chloro-2-methyl-phenyl)-6-(4-chloro-2-methyl-phenyl)-1-isopropyl-4-oxo-1,4,5,6-tetrahydro-pyrrolo[3,4-b]pyrrol-2-yl]-4-methoxy-N-methyl-benzamide]	44.6
COc1ccc(-c2nnn[nH]2)cc1-c1cc2c(n1C(C)C)C(c1ccc(Cl)cc1)N(c1cc(Cl)ccc1C)C2=O (stereo not drawn) [Example 34, 5-(5-Chloro-2-methyl-phenyl)-6-(4-chloro-phenyl)-1-isopropyl-2-[2-methoxy-5-(1H-tetrazol-5-yl)-phenyl]-5,6-dihydro-1H-pyrrolo[3,4-b]pyrrol-4-one]	0.188
COc1ccc(C(=O)O)cc1-c1cc2c(n1C(C)C)C(c1ccc(Cl)cc1)N(c1cc(Cl)ccc1C)C2=O (stereo not drawn) [Example 35, 3-[5-(5-Chloro-2-methyl-phenyl)-6-(4-chloro-phenyl)-1-isopropyl-4-oxo-1,4,5,6-tetrahydro-pyrrolo[3,4-b]pyrrol-2-yl]-4-methoxy-benzoic acid]	0.169
COc1ccc(C(=O)NCCS(C)(=O)=O)cc1-c1cc2c(n1C(C)C)C(c1ccc(Cl)cc1)N(c1cc(Cl)ccc1C)C2=O (stereo not drawn) [Example 36, 3-[5-(5-Chloro-2-methyl-phenyl)-6-(4-chloro-phenyl)-1-isopropyl-4-oxo-1,4,5,6-tetrahydro-pyrrolo[3,4-b]pyrrol-2-yl]-N-(2-methanesulfonyl-ethyl)-4-methoxy-benzamide]	0.115
COc1ccc(-c2cc3c(n2C(C)C)C(c2ccc(Cl)cc2)N(c2cc(Cl)ccc2C)C3=O)c(OC)c1 (stereo not drawn) [Example 38, 5-(5-Chloro-2-methyl-phenyl)-6-(4-chloro-phenyl)-2-(2,4-dimethoxy-phenyl)-1-isopropyl-5,6-dihydro-1H-pyrrolo[3,4-b]pyrrol-4-one]	0.444
COc1nc(N)ncc1-c1cc2c(n1C(C)C)C(c1ccc(C#N)cc1)N(c1ccc(F)c(Cl)c1)C2=O (stereo not drawn) [Example 39, 4-[2-(2-Amino-4-methoxy-pyrimidin-5-yl)-5-(3-chloro-4-fluoro-phenyl)-1-isopropyl-4-oxo-1,4,5,6-tetrahydro-pyrrolo[3,4-b]pyrrol-6-yl]-benzonitrile]	0.556
COc1ncc(-c2cc3c(n2C(C)C)C(c2ccc(C#N)cc2)N(c2ccc(F)c(Cl)c2)C3=O)c(OC)n1 (stereo not drawn) [Example 40, 4-[5-(3-Chloro-4-fluoro-phenyl)-2-(2,4-dimethoxy-pyrimidin-5-yl)-1-isopropyl-4-oxo-1,4,5,6-tetrahydro-pyrrolo[3,4-b]pyrrol-6-yl]-benzonitrile]	0.478
COc1nc(N)ncc1-c1cc2c(n1C(C)C)C(c1ccc(C#N)cc1)N(c1cccc(Cl)c1F)C2=O (stereo not drawn) [Example 41, 4-[2-(2-Amino-4-methoxy-pyrimidin-5-yl)-5-(3-chloro-2-fluoro-phenyl)-1-isopropyl-4-oxo-1,4,5,6-tetrahydro-pyrrolo[3,4-b]pyrrol-6-yl]-benzonitrile]	0.349
COc1ncc(-c2cc3c(n2C(C)C)C(c2ccc(C#N)cc2)N(c2cccc(Cl)c2F)C3=O)c(OC)n1 (stereo not drawn) [Example 42, 4-[5-(3-Chloro-2-fluoro-phenyl)-2-(2,4-dimethoxy-pyrimidin-5-yl)-1-isopropyl-4-oxo-1,4,5,6-tetrahydro-pyrrolo[3,4-b]pyrrol-6-yl]-benzonitrile]	0.246
COc1nc(N)ncc1-c1cc2c(n1C(C)C)C(c1ccc(C#N)cc1)N(c1cc(Cl)ccc1C)C2=O (stereo not drawn) [Example 43]	0.401
COc1ncc(-c2cc3c(n2C(C)C)C(c2ccc(C#N)cc2)N(c2cc(Cl)ccc2C)C3=O)c(OC)n1 (stereo not drawn) [Example 44, 4-[5-(5-Chloro-2-methyl-phenyl)-2-(2,4-dimethoxy-pyrimidin-5-yl)-1-isopropyl-4-oxo-1,4,5,6-tetrahydro-pyrrolo[3,4-b]pyrrol-6-yl]-benzonitrile]	0.167
CCn1c(-c2cnc(OC)nc2OC)cc2c1C(c1ccc(Cl)cc1)N(c1cc(Cl)ccc1C)C2=O (stereo not drawn) [Example 45, 5-(5-Chloro-2-methyl-phenyl)-6-(4-chloro-phenyl)-2-(2,4-dimethoxy-pyrimidin-5-yl)-1-ethyl-5,6-dihydro-1H-pyrrolo[3,4-b]pyrrol-4-one]	87.6
COc1ccccc1-c1cc2c(n1C(C)C)C(c1ccc(Cl)cc1)N(c1cc(Cl)c(=O)n(C)c1)C2=O (stereo not drawn) [Example 46, 5-(5-Chloro-1-methyl-6-oxo-1,6-dihydro-pyridin-3-yl)-6-(4-chloro-phenyl)-1-isopropyl-2-(2-methoxy-phenyl)-5,6-dihydro-1H-pyrrolo[3,4-b]pyrrol-4-one]	0.203
COc1ccc(C(=O)N2CCOCC2)cc1-c1cc2c(n1C(C)C)C(c1ccc(Cl)cc1)N(c1cc(Cl)c(=O)n(C)c1)C2=O (stereo not drawn) [Example 47, 5-(5-Chloro-1-methyl-6-oxo-1,6-dihydro-pyridin-3-yl)-6-(4-chloro-phenyl)-1-isopropyl-2-[2-methoxy-5-(morpholine-4-carbonyl)-phenyl]-5,6-dihydro-1H-pyrrolo[3,4-B]pyrrol-4-one]	0.15
COc1ncc(-c2cc3c(n2C(C)C)C(c2ccc(Cl)cc2)N(c2cc(Cl)c(=O)n(C)c2)C3=O)c(OC)n1 (stereo not drawn) [Example 48, 5-(5-Chloro-1-methyl-6-oxo-1,6-dihydro-pyridin-3-yl)-6-(4-chloro-phenyl)-2-(2,4-dimethoxy-pyrimidin-5-yl)-1-isopropyl-5,6-dihydro-1H-pyrrolo[3,4-b]pyrrol-4-one]	0.188
CNC(=O)c1ccc(OC)c(-c2cc3c(n2C(C)C)C(c2ccc(Cl)cc2)N(c2cc(Cl)c(=O)n(C)c2)C3=O)c1 (stereo not drawn) [Example 49, 3-[5-(5-Chloro-1-methyl-6-oxo-1,6-dihydro-pyridin-3-yl)-6-(4-chloro-phenyl)-1-isopropyl-4-oxo-1,4,5,6-tetrahydro-pyrrolo[3,4-b]pyrrol-2-yl]-4-methoxy-N-methyl-benzamide]	0.137
COc1ccc(C(=O)O)cc1-c1cc2c(n1C(C)C)C(c1ccc(Cl)cc1)N(c1cc(Cl)c(=O)n(C)c1)C2=O (stereo not drawn) [Example 50, 3-[5-(5-Chloro-1-methyl-6-oxo-1,6-dihydro-pyridin-3-yl)-6-(4-chloro-phenyl)-1-isopropyl-4-oxo-1,4,5,6-tetrahydro-pyrrolo[3,4S-b]pyrrol-2-yl]-4-methoxy-benzoic acid]	0.234
COc1nc(N)ncc1-c1cc2c(n1C(C)C)C(c1ccc(Cl)cc1)N(c1cc(Cl)c(=O)n(C)c1)C2=O (stereo not drawn) [Example 51, 2-(2-Amino-4-methoxy-pyrimidin-5-yl)-5-(5-chloro-1-methyl-6-oxo-1,6-dihydro-pyridin-3-yl)-6-(4-chloro-phenyl)-1-isopropyl-5,6-dihydro-1H-pyrrolo[3,4-b]pyrrol-4-one]	0.461
COc1nc(N(C)C)ncc1-c1cc2c(n1C(C)C)C(c1ccc(Cl)cc1)N(c1cc(Cl)c(=O)n(C)c1)C2=O (stereo not drawn) [Example 52, 5-(5-Chloro-1-methyl-6-oxo-1,6-dihydro-pyridin-3-yl)-6-(4-chloro-phenyl)-2-(2-dimethylamino-4-methoxy-pyrimidin-5-yl)-1-isopropyl-5,6-dihydro-1H-pyrrolo[3,4-b]pyrrol-4-one]	0.137
CNC(=O)c1ccc(OC)c(-c2cc3c(n2C(C)C)C(c2ccc(Cl)cc2)N(c2ccc(F)c(Cl)c2)C3=O)c1 (stereo not drawn) [Example 53, 3-[5-(3-Chloro-4-fluoro-phenyl)-6-(4-chloro-phenyl)-1-isopropyl-4-oxo-1,4,5,6-tetrahydro-pyrrolo[3,4-b]pyrrol-2-yl]-4-methoxy-N-methyl-benzamide]	0.323
COc1ncc(-c2cc3c(n2C(C)C)C(c2ccc(Cl)cc2)N(c2ccc(F)c(Cl)c2)C3=O)c(OC)n1 (stereo not drawn) [Example 54, 5-(3-Chloro-4-fluoro-phenyl)-6-(4-chloro-phenyl)-2-(2,4-dimethoxy-pyrimidin-5-yl)-1-isopropyl-5,6-dihydro-1H-pyrrolo[3,4-b]pyrrol-4-one]	0.267
COc1ccc(C(=O)N2CCOCC2)cc1-c1cc2c(n1C(C)C)C(c1ccc(Cl)cc1)N(c1ccc(F)c(Cl)c1)C2=O (stereo not drawn) [Example 55, 5-(3-Chloro-4-fluoro-phenyl)-6-(4-chloro-phenyl)-1-isopropyl-2-[2-methoxy-5-(morpholine-4-carbonyl)-phenyl]-5,6-dihydro-1H-pyrrolo[3,4-b]pyrrol-4-one]	0.287
COc1ccc(C(=O)O)cc1-c1cc2c(n1C(C)C)C(c1ccc(Cl)cc1)N(c1ccc(F)c(Cl)c1)C2=O (stereo not drawn) [Example 56, 3-[5-(3-Chloro-4-fluoro-phenyl)-6-(4-chloro-phenyl)-1-isopropyl-4-oxo-1,4,5,6-tetrahydro-pyrrolo[3,4-b]pyrrol-2-yl]-4-methoxy-benzoic acid]	0.351
COc1nc(N(C)C)ncc1-c1cc2c(n1C(C)C)C(c1ccc(Cl)cc1)N(c1ccc(F)c(Cl)c1)C2=O (stereo not drawn) [Example 58, 5-(3-Chloro-4-fluoro-phenyl)-6-(4-chloro-phenyl)-2-(2-dimethylamino-4-methoxy-pyrimidin-5-yl)-1-isopropyl-5,6-dihydro-1H-pyrrolo[3,4-b]pyrrol-4-one]	0.458
